Data from ChEMBL document CHEMBL3351412, “Design, synthesis and biological evaluation of β-boswellic acid based HDAC inhibitors as inducers of cancer cell death” (Bioorg Med Chem Lett, 2014).

Tests used:
[1] = Cytotoxicity against human HL60 cells; type: functional, cell-based; settings: HL-60
MCF7 = assay: Cytotoxicity against human MCF7 cells; type: functional, cell-based
[2] = Cytotoxicity against human MIAPaCa2 cells; type: functional, cell-based; settings: MIA PaCa-2
A549 = assay: Cytotoxicity against human A549 cells; type: functional, cell-based
[3] = Cytotoxicity against human FR2 cells; type: cell-based
[4] = Cytotoxicity against human HCT116 cells; type: functional, cell-based; settings: HCT-116
[5] = biological target: T1, Histone deacetylase (Homo sapiens) (UniProt Q13547+O15379+Q9UBN7+Q92769+Q9UQL6+Q8WUI4+Q9BY41+Q96DB2+P56524+Q9UKV0+Q969S8); assay: Inhibition of HDAC (unknown origin) at 50 uM; type: protein assay
Histone deacetylase = assay: Inhibition of HDAC (unknown origin); type: protein assay, Homo sapiens
[6] = biological target: T1, Histone deacetylase (Homo sapiens); assay: Inhibition of HDAC (unknown origin) at 30 uM; type: protein assay
[7] = Cell cycle arrest in human HL60 cells assessed as accumulation at sub-G1 phase at 1 uM by propidium iodide staining-based flow cytometry (reference value: 2.1%); type: functional; settings: HL-60
HL-60 [8] = assay: Induction of apoptosis in human HL60 cells assessed as loss of mitochondrial membrane potential in P5 quadrant at 1 uM by Rhodamine123 assay (reference value: 3.4%); type: functional
HL-60 [9] = assay: Induction of apoptosis in human HL60 cells assessed as loss of mitochondrial membrane potential in P4 quadrant at 1 uM by Rhodamine123 assay (reference value: 96.6%); type: functional
[10] = Cell cycle arrest in human HL60 cells assessed as accumulation at G2/M phase at 1 uM by propidium iodide staining-based flow cytometry (reference value: 21.3%); type: functional; settings: HL-60
[11] = Cell cycle arrest in human HL60 cells assessed as accumulation at S phase at 1 uM by propidium iodide staining-based flow cytometry (reference value: 17.3%); type: functional; settings: HL-60
[12] = Cell cycle arrest in human HL60 cells assessed as accumulation at G1 phase at 1 uM by propidium iodide staining-based flow cytometry (reference value: 58.9%); type: functional; settings: HL-60

inhibition [5] [%]	IC50 (Histone deacetylase) [µM]	inhibition [6] [%]	SMILES	IC50 [1] [µM]	IC50 (MCF7) [µM]	IC50 [2] [µM]	IC50 (A549) [µM]	IC50 [3] [µM]	IC50 [4] [µM]	Activity [7] [%]	Activity (HL-60 [8]) [%]	Activity (HL-60 [9]) [%]	Activity [10] [%]	Activity [11] [%]	Activity [12] [%]
			C[C@H]1[C@H](C)CC[C@]2(C)CC[C@]3(C)C(=CC[C@@H]4[C@@]5(C)CC[C@@H](O)[C@](C)(NC(=O)CCCC(=O)O)[C@@H]5CC[C@]43C)[C@H]12	13.4	14.3	11	> 20	> 20	> 20						
			COC(=O)CCCC(=O)N[C@@]1(C)[C@H](OC(C)=O)CC[C@]2(C)C3CC=C4[C@@H]5[C@@H](C)[C@H](C)CC[C@]5(C)CC[C@@]4(C)[C@]3(C)CC[C@@H]12 (single isomer, unassigned)	17.1	8.7	11.4	> 20	> 20	19						
			COC(=O)CCCCCCC(=O)N[C@]1(C)[C@@H]2CC[C@]3(C)[C@H](CC=C4[C@@H]5[C@@H](C)[C@H](C)CC[C@]5(C)CC[C@]43C)[C@@]2(C)CC[C@H]1OC(C)=O	> 20	> 20	> 20	> 20	> 20	> 20						
			C[C@H]1[C@H](C)CC[C@]2(C)CC[C@]3(C)C(=CC(=O)[C@@H]4[C@@]5(C)CC[C@@H](O)[C@](C)(NC(=O)CCCCCCC(=O)O)[C@@H]5CC[C@]43C)[C@H]12	> 20	> 20	8.6	2.9	> 20	> 20						
			C[C@H]1[C@H](C)CC[C@]2(C)CC[C@]3(C)C(=CC(=O)[C@@H]4[C@@]5(C)CC[C@@H](O)[C@](C)(NC(=O)CCCCCCCC(=O)O)[C@@H]5CC[C@]43C)[C@H]12	7.5	15.1	> 20	> 20	16.6	> 20						
			C[C@H]1[C@H](C)CC[C@]2(C)CC[C@]3(C)C(=CC[C@@H]4[C@@]5(C)CC[C@@H](O)[C@](C)(NC(=O)CCCCC(=O)NO)[C@@H]5CC[C@]43C)[C@H]12	> 20	4.4	11.8	> 20	> 20	> 20						
52	48	31	C[C@H]1[C@H](C)CC[C@]2(C)CC[C@]3(C)C(=CC(=O)[C@@H]4[C@@]5(C)CC[C@@H](O)[C@](C)(NC(=O)CCCCCCCC(=O)NO)[C@@H]5CC[C@]43C)[C@H]12	> 20	11	> 20	> 20	> 20	12						
			COC(=O)CCCCCCCC(=O)N[C@]1(C)[C@@H]2CC[C@]3(C)[C@H](C(=O)C=C4[C@@H]5[C@@H](C)[C@H](C)CC[C@]5(C)CC[C@]43C)[C@@]2(C)CC[C@H]1OC(C)=O	10	2	6.1	10	17.2	18						
			O=C(CCCCCCC(=O)Nc1ccccc1)NO [VORINOSTAT]							2.8	4	96	17.1	14	65.3
39	> 50	12	C[C@H]1[C@H](C)CC[C@]2(C)CC[C@]3(C)C(=CC(=O)[C@@H]4[C@@]5(C)CC[C@@H](O)[C@](C)(NC(=O)CCCCCCC(=O)NO)[C@@H]5CC[C@]43C)[C@H]12	3	4	8.7	6.9	4.3	5.2						
			C[C@H]1[C@H](C)CC[C@]2(C)CC[C@]3(C)C(=CC(=O)[C@@H]4[C@@]5(C)CC[C@@H](O)[C@](C)(NC(=O)CCCC(=O)O)[C@@H]5CC[C@]43C)[C@H]12	> 20	11.1	6	6.6	> 20	7.1						
			COC(=O)CCCCC(=O)N[C@]1(C)[C@@H]2CC[C@]3(C)[C@H](CC=C4[C@@H]5[C@@H](C)[C@H](C)CC[C@]5(C)CC[C@]43C)[C@@]2(C)CC[C@H]1OC(C)=O	> 20	13.8	> 20	> 20	> 20	> 20						
			COC(=O)CCCCC(=O)N[C@]1(C)[C@@H]2CC[C@]3(C)[C@H](C(=O)C=C4[C@@H]5[C@@H](C)[C@H](C)CC[C@]5(C)CC[C@]43C)[C@@]2(C)CC[C@H]1OC(C)=O	> 20	15.1	15.1	15.1	> 20	15.1						
